Holding throughout (assay type): functional
The subject of one experiment is Aspergillus flavus. Nature of the experiment: Antifungal activity against Aspergillus flavus ATCC 9170 by micro-broth dilution method. On the technique in general: In broth dilution the organism is exposed to a series of concentrations in liquid medium.
In a further experiment the test system is Candida tropicalis. Nature of the experiment: Antifungal activity against Candida tropicalis C131 by micro-broth dilution method.
A further experiment deals with Cryptococcus neoformans. Kind of experiment: Antifungal activity against Cryptococcus neoformans ATCC 32264 by microbroth dilution method.
The subject of the next experiment is Candida albicans. Nature of the experiment: Antifungal activity against Candida albicans ATCC 10231 by micro-broth dilution method.
Another experiment deals with Nannizzia gypsea. Kind of experiment: Antifungal activity against Microsporum gypseum C115 by microbroth dilution method.
Experiment [1] concerns Trichophyton mentagrophytes. Kind of experiment: Antifungal activity against Trichophyton mentagrophytes ATCC 9972 by micro-broth dilution method.
In another experiment the test system is Saccharomyces cerevisiae. Kind of experiment: Antifungal activity against Saccharomyces cerevisiae ATCC 9763 by microbroth dilution method.
The test system of another experiment is Trichophyton rubrum. Nature of the experiment: Antifungal activity against Trichophyton rubrum C113 by microbroth dilution method.
In the next experiment the test system is Aspergillus niger. Kind of experiment: Antifungal activity against Aspergillus niger ATCC 9029 by micro-broth dilution method.
Another experiment has as its system Aspergillus fumigatus. Kind of experiment: Antifungal activity against Aspergillus fumigatus ATCC 26934 by micro-broth dilution method.

Experimental findings from ChEMBL document CHEMBL1143950, “Antifungal and cytotoxic activities of some N-substituted aniline derivatives bearing a hetaryl fragment” (Bioorg Med Chem, 2008) are described below.

One may read the MIC as the least concentration at which growth counts as inhibited. A higher MIC goes with a less susceptible organism.

The structures appear in SMILES notation. In brackets after ≈: the same amount, converted by molar mass. A value given as a limit tells only on which side of the number the result lay.

Consider `O=[N+]([O-])c1cccc(NCc2cccnc2)c1`, for which the minimum inhibitory concentration (MIC) in the experiment with Aspergillus flavus is more than 250 µg/mL; against Candida tropicalis it was more than 250 µg/mL; in the experiment with Cryptococcus neoformans it was more than 250 µg/mL; in the experiment with Candida albicans, more than 250 µg/mL; in the experiment on Nannizzia gypsea it was 25 µg/mL (≈ 109 µM); in experiment [1] it was 25 µg/mL (≈ 109 µM). In addition, the minimal inhibitory concentration (MIC) against Saccharomyces cerevisiae is more than 250 µg/mL; against Trichophyton rubrum it was 25 µg/mL (≈ 109 µM); in the experiment on Aspergillus niger, more than 250 µg/mL; in the experiment with Aspergillus fumigatus, more than 250 µg/mL.
Consider `Cc1cc(C)cc(NCc2ccccn2)c1`, for which the minimal inhibitory concentration (MIC) with Aspergillus flavus is 100 µg/mL (≈ 471 µM); against Candida tropicalis it was 200 µg/mL (≈ 942 µM); in the experiment on Cryptococcus neoformans, 50 µg/mL (≈ 236 µM); with Candida albicans, more than 250 µg/mL; with Nannizzia gypsea, 50 µg/mL (≈ 236 µM); in [1], 50 µg/mL (≈ 236 µM). Further, the MIC in the experiment on Saccharomyces cerevisiae is more than 250 µg/mL; in the experiment on Trichophyton rubrum, 50 µg/mL (≈ 236 µM); against Aspergillus niger it was 100 µg/mL (≈ 471 µM); against Aspergillus fumigatus, 100 µg/mL (≈ 471 µM).
Regarding `c1ccc(NCc2ccco2)cc1`, the minimum inhibitory concentration (MIC) in the experiment on Aspergillus flavus is 100 µg/mL (≈ 577 µM); with Candida tropicalis, 250 µg/mL (≈ 1440 µM); with Cryptococcus neoformans, 250 µg/mL (≈ 1440 µM); with Candida albicans, 250 µg/mL (≈ 1440 µM); in the experiment with Nannizzia gypsea it was 100 µg/mL (≈ 577 µM); in experiment [1], 100 µg/mL (≈ 577 µM). The minimal inhibitory concentration (MIC) against Saccharomyces cerevisiae is more than 250 µg/mL; against Trichophyton rubrum, 100 µg/mL (≈ 577 µM); against Aspergillus niger it was 100 µg/mL (≈ 577 µM); against Aspergillus fumigatus it was 62.5 µg/mL (≈ 361 µM).
Turning to `Cc1cc(C)cc(NCc2cccnc2)c1`, the minimal inhibitory concentration (MIC) against Aspergillus flavus was 200 µg/mL (≈ 942 µM); in the experiment on Candida tropicalis, more than 250 µg/mL; in the experiment with Cryptococcus neoformans it was 100 µg/mL (≈ 471 µM); against Candida albicans it was more than 250 µg/mL; with Nannizzia gypsea it was 25 µg/mL (≈ 118 µM); in [1] it was 25 µg/mL (≈ 118 µM). The minimal inhibitory concentration (MIC) turned out to be 200 µg/mL (≈ 942 µM) in the experiment on Saccharomyces cerevisiae, 25 µg/mL (≈ 118 µM) against Trichophyton rubrum, 200 µg/mL (≈ 942 µM) with Aspergillus niger and 100 µg/mL (≈ 471 µM) against Aspergillus fumigatus.
Regarding `Cn1cccc1CNc1ccc(Cl)cc1`, the MIC in the experiment on Aspergillus flavus is more than 250 µg/mL; in the experiment on Candida tropicalis, more than 250 µg/mL; in the experiment on Cryptococcus neoformans, 125 µg/mL (≈ 566 µM); in the experiment with Candida albicans, more than 250 µg/mL; in the experiment with Nannizzia gypsea, more than 250 µg/mL; in experiment [1] it was 250 µg/mL (≈ 1130 µM). For the same compound, the minimum inhibitory concentration (MIC) was more than 250 µg/mL in the experiment with Saccharomyces cerevisiae, 250 µg/mL (≈ 1130 µM) in the experiment on Trichophyton rubrum, more than 250 µg/mL against Aspergillus niger and more than 250 µg/mL in the experiment on Aspergillus fumigatus.
Turning to `c1ccc(NCc2ccsc2)cc1`, the minimum inhibitory concentration (MIC) against Aspergillus flavus was 250 µg/mL (≈ 1320 µM); in the experiment on Candida tropicalis, 250 µg/mL (≈ 1320 µM); in the experiment with Cryptococcus neoformans, 250 µg/mL (≈ 1320 µM); with Candida albicans, 250 µg/mL (≈ 1320 µM); with Nannizzia gypsea, 250 µg/mL (≈ 1320 µM); in [1] it was 125 µg/mL (≈ 660 µM). Moreover, the MIC is 250 µg/mL (≈ 1320 µM) with Saccharomyces cerevisiae, 125 µg/mL (≈ 660 µM) with Trichophyton rubrum, 250 µg/mL (≈ 1320 µM) with Aspergillus niger and 250 µg/mL (≈ 1320 µM) against Aspergillus fumigatus.
Take `Ic1ccc(NCc2cccnc2)cc1`: the minimal inhibitory concentration (MIC) against Aspergillus flavus is 50 µg/mL (≈ 161 µM); with Candida tropicalis it was 200 µg/mL (≈ 645 µM); in the experiment with Cryptococcus neoformans, 50 µg/mL (≈ 161 µM); in the experiment on Candida albicans, more than 250 µg/mL; in the experiment with Nannizzia gypsea, 50 µg/mL (≈ 161 µM); in [1], 25 µg/mL (≈ 80.6 µM). The MIC worked out at 200 µg/mL (≈ 645 µM) in the experiment with Saccharomyces cerevisiae, 25 µg/mL (≈ 80.6 µM) in the experiment with Trichophyton rubrum, 100 µg/mL (≈ 322 µM) against Aspergillus niger and 50 µg/mL (≈ 161 µM) against Aspergillus fumigatus.
For `Cc1ccc(NCc2ccccn2)cc1`, the minimal inhibitory concentration (MIC) with Aspergillus flavus is more than 250 µg/mL; against Candida tropicalis, more than 250 µg/mL; against Cryptococcus neoformans, more than 250 µg/mL; against Candida albicans, more than 250 µg/mL; in the experiment with Nannizzia gypsea, 50 µg/mL (≈ 252 µM); in experiment [1], 50 µg/mL (≈ 252 µM). Besides, the MIC is more than 250 µg/mL with Saccharomyces cerevisiae, 50 µg/mL (≈ 252 µM) against Trichophyton rubrum, more than 250 µg/mL in the experiment with Aspergillus niger and more than 250 µg/mL against Aspergillus fumigatus.
Consider `c1ccc(NCc2cccnc2)cc1`, for which the MIC against Aspergillus flavus is 250 µg/mL (≈ 1360 µM); against Candida tropicalis it was 250 µg/mL (≈ 1360 µM); against Cryptococcus neoformans, more than 250 µg/mL; against Candida albicans, 250 µg/mL (≈ 1360 µM); in the experiment on Nannizzia gypsea, 125 µg/mL (≈ 678 µM); in experiment [1], 125 µg/mL (≈ 678 µM). Besides, the minimal inhibitory concentration (MIC) is more than 250 µg/mL in the experiment on Saccharomyces cerevisiae, 125 µg/mL (≈ 678 µM) against Trichophyton rubrum, 250 µg/mL (≈ 1360 µM) with Aspergillus niger and 250 µg/mL (≈ 1360 µM) against Aspergillus fumigatus.
As for `Cc1ccc(NCc2cccnc2)cc1`, the MIC was more than 250 µg/mL in the experiment on Aspergillus flavus; more than 250 µg/mL in the experiment on Candida tropicalis; more than 250 µg/mL in the experiment on Cryptococcus neoformans; more than 250 µg/mL in the experiment on Candida albicans; 250 µg/mL (≈ 1260 µM) in the experiment with Nannizzia gypsea; 250 µg/mL (≈ 1260 µM) in experiment [1]. Besides, the minimum inhibitory concentration (MIC) in the experiment with Saccharomyces cerevisiae is more than 250 µg/mL; in the experiment on Trichophyton rubrum, 250 µg/mL (≈ 1260 µM); against Aspergillus niger it was more than 250 µg/mL; in the experiment with Aspergillus fumigatus, more than 250 µg/mL.
Turning to `c1ccc(NCc2ccccn2)cc1`, the minimal inhibitory concentration (MIC) is more than 250 µg/mL in the experiment with Aspergillus flavus; 250 µg/mL (≈ 1360 µM) with Candida tropicalis; more than 250 µg/mL against Cryptococcus neoformans; 250 µg/mL (≈ 1360 µM) against Candida albicans; 125 µg/mL (≈ 678 µM) in the experiment with Nannizzia gypsea; 25 µg/mL (≈ 136 µM) in [1]. The MIC was more than 250 µg/mL in the experiment with Saccharomyces cerevisiae, 25 µg/mL (≈ 136 µM) in the experiment with Trichophyton rubrum, 250 µg/mL (≈ 1360 µM) against Aspergillus niger and 250 µg/mL (≈ 1360 µM) against Aspergillus fumigatus.
In the case of `Ic1ccc(NCc2ccccn2)cc1`, the MIC against Aspergillus flavus is 100 µg/mL (≈ 322 µM); in the experiment on Candida tropicalis, more than 250 µg/mL; with Cryptococcus neoformans it was 100 µg/mL (≈ 322 µM); against Candida albicans, more than 250 µg/mL; against Nannizzia gypsea, 25 µg/mL (≈ 80.6 µM); in experiment [1], 25 µg/mL (≈ 80.6 µM). For the same compound, the MIC was found to be 200 µg/mL (≈ 645 µM) in the experiment with Saccharomyces cerevisiae, 25 µg/mL (≈ 80.6 µM) in the experiment on Trichophyton rubrum, 100 µg/mL (≈ 322 µM) against Aspergillus niger and 200 µg/mL (≈ 645 µM) against Aspergillus fumigatus.
In the case of `Cc1ccc(NCc2ccsc2)cc1`, the MIC was 250 µg/mL (≈ 1230 µM) against Aspergillus flavus; more than 250 µg/mL against Candida tropicalis; 250 µg/mL (≈ 1230 µM) with Cryptococcus neoformans; more than 250 µg/mL in the experiment with Candida albicans; 250 µg/mL (≈ 1230 µM) in the experiment on Nannizzia gypsea; 125 µg/mL (≈ 615 µM) in experiment [1]. Also, the minimum inhibitory concentration (MIC) against Saccharomyces cerevisiae is more than 250 µg/mL; with Trichophyton rubrum, 125 µg/mL (≈ 615 µM); against Aspergillus niger, 250 µg/mL (≈ 1230 µM); against Aspergillus fumigatus, 250 µg/mL (≈ 1230 µM).
Take `Cn1cccc1CNc1ccccc1`: the MIC in the experiment with Aspergillus flavus is more than 250 µg/mL; against Candida tropicalis it was more than 250 µg/mL; against Cryptococcus neoformans, more than 250 µg/mL; with Candida albicans, more than 250 µg/mL; in the experiment with Nannizzia gypsea it was more than 250 µg/mL; in [1], 250 µg/mL (≈ 1340 µM). Besides, the minimum inhibitory concentration (MIC) was more than 250 µg/mL against Saccharomyces cerevisiae, 250 µg/mL (≈ 1340 µM) in the experiment on Trichophyton rubrum, more than 250 µg/mL against Aspergillus niger and more than 250 µg/mL against Aspergillus fumigatus.
For the compound `c1ccc(NCc2ccncc2)cc1`, the minimum inhibitory concentration (MIC) in the experiment on Aspergillus flavus is 250 µg/mL (≈ 1360 µM); against Candida tropicalis, 250 µg/mL (≈ 1360 µM); in the experiment on Cryptococcus neoformans, more than 250 µg/mL; with Candida albicans, more than 250 µg/mL; in the experiment on Nannizzia gypsea, 125 µg/mL (≈ 678 µM); in experiment [1] it was 125 µg/mL (≈ 678 µM). For the same compound, the minimal inhibitory concentration (MIC) in the experiment with Saccharomyces cerevisiae is more than 250 µg/mL; in the experiment with Trichophyton rubrum, 125 µg/mL (≈ 678 µM); in the experiment on Aspergillus niger, 250 µg/mL (≈ 1360 µM); against Aspergillus fumigatus, 250 µg/mL (≈ 1360 µM).
For `Cc1ccc(NCc2cccn2C)cc1`, the minimal inhibitory concentration (MIC) (against Aspergillus flavus; in the experiment on Candida tropicalis; against Cryptococcus neoformans; in the experiment with Candida albicans; against Nannizzia gypsea; in experiment [1]) was more than 250 µg/mL in each case. Moreover, the MIC in the experiment on Saccharomyces cerevisiae, against Trichophyton rubrum, with Aspergillus niger and in the experiment on Aspergillus fumigatus was more than 250 µg/mL throughout.
As to `C[C@@H]1[C@H](O)[C@@H](C)/C=C/C=C/C=C/C=C/C=C/C=C/C=C/[C@H](O[C@@H]2O[C@H](C)[C@@H](O)[C@H](N)[C@@H]2O)C[C@@H]2O[C@](O)(C[C@@H](O)C[C@@H](O)[C@H](O)CC[C@@H](O)C[C@@H](O)CC(=O)O[C@H]1C)C[C@H](O)[C@H]2C(=O)O` [AMPHOTERICIN B], the MIC was determined as 0.5 µg/mL (≈ 0.541 µM) in the experiment with Aspergillus flavus; 0.5 µg/mL (≈ 0.541 µM) against Candida tropicalis; 0.25 µg/mL (≈ 0.271 µM) in the experiment with Cryptococcus neoformans; 1 µg/mL (≈ 1.08 µM) against Candida albicans; 0.5 µg/mL (≈ 0.541 µM) against Saccharomyces cerevisiae; 0.5 µg/mL (≈ 0.541 µM) in the experiment on Aspergillus niger. In the experiment on Aspergillus fumigatus, this compound came in with a minimum inhibitory concentration (MIC) of 0.5 µg/mL (≈ 0.541 µM).
On to `CN(C/C=C/C#CC(C)(C)C)Cc1cccc2ccccc12` [TERBINAFINE], for which the minimum inhibitory concentration (MIC) against Nannizzia gypsea worked out at 0.04 µg/mL (≈ 0.137 µM); in experiment [1] it was 0.04 µg/mL (≈ 0.137 µM); with Trichophyton rubrum, 0.01 µg/mL (≈ 0.0343 µM).
